# Measurements published in patent US9861613B2, “GPR142 agonist compounds” (Eli Lilly and Company, priority 2014, dated 2018).
# What was measured:
# human GPR142 = target: T1, human GPR142 (Homo sapiens, UniProt Q7Z601); assay: GPR142 agonist effect as measured by IP-1 assay (HTRF), human GPR142; assay type: cell-based; conditions: HEK293 cells expressing human GPR142, IP-1, Mean±SEM, n=9
# T1 construct: expressed in transfected cells; host or cells: HEK293 (G418-selected)
# T1 sequence (Q7Z601 1-462): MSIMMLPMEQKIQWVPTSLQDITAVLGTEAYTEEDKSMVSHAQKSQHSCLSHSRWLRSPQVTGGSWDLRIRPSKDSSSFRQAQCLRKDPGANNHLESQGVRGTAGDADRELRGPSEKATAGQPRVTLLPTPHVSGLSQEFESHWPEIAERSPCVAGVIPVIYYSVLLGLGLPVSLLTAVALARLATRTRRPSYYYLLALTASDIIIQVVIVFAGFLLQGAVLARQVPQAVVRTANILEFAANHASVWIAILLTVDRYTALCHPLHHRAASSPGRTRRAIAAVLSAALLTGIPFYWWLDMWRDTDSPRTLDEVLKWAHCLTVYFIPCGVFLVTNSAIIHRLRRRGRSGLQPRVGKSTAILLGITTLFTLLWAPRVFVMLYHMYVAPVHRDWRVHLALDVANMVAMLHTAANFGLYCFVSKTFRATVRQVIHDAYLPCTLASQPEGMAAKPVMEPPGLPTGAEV
# Description: (§1) The purpose of this assay is to detect GPR142 agonist effect.
# (§2) HEK293 cells expressing human GPR142 or mouse GPR142 are maintained in Dulbecco's modified Eagle's medium supplemented with 10% FBS and 800 μg/ml G418 (Geneticin®) at 37° C. and 5% CO2. The cells are plated in 384 well plates at 5000 cells per well and allowed 18 hours for attachment. After addition of compounds at varying concentrations ranging from 30 μM to 1 nM, cells are incubated for 1 hour. IP-1 measurements are performed using an IP-One HTRF® assay kit (Cisbio) according to manufacturer's protocol using assay buffer containing 1×HBSS (+Ca, +Mg), 0.1% BSA, 50 mM LiCl and 20 mM HEPES, pH 7.2. The reaction is stopped by addition of IP1-d2 (IP-1 coupled to an organic HTRF acceptor) followed by cryptate solution (http://www.htrf.com/usa/htrf-chemistry) and the plates are incubated at 25° C. for 1 hour. Fluorescence is read in an Envision instrument at 665 nm and 620 nm wavelength. The ratio of 665 nm/620 nm is calculated and converted to IP-1 levels using an IP-1 standard curve. The data is fit to a 4 parameter-fit logistics to determine EC50 values.
# mouse GPR142 = target: T2, mouse GPR142 (Mus musculus, UniProt Q7TQN9); assay: GPR142 agonist effect as measured by IP-1 assay (HTRF), mouse GPR142; assay type: cell-based; conditions: HEK293 cells expressing mouse GPR142, IP-1; Mean±SEM, n=5; read-out: EC50 against mouse GPR142 receptor
# T2 construct: expressed in transfected cells; host or cells: HEK293 (G418-selected)
# T2 sequence (Q7TQN9 1-365): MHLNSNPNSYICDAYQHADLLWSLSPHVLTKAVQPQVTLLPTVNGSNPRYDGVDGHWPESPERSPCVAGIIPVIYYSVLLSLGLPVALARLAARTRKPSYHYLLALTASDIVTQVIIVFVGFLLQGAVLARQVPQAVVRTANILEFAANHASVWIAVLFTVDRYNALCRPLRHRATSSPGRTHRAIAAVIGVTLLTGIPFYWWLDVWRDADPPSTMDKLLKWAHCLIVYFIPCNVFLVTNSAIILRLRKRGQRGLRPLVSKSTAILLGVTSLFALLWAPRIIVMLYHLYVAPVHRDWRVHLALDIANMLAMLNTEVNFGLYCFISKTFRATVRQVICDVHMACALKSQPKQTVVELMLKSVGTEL
# Description: as §1, §2
# GPR142 = target: T3, GPR142 (Mus musculus, UniProt Q7TQN9); assay: Intraperitoneal glucose tolerance test (IPGTT); assay type: in vivo; conditions: lean C57BL/6 mice, oral dosing 30 min before glucose challenge
# T3 construct: from tissue; host or cells: whole animal, male C57BL/6 mice
# T3 sequence (Q7TQN9 1-365): T2 sequence (Q7TQN9 1-365)
# Description: IPGTT assay is used to examine the ability of exemplified compounds to activate GPR142 in vivo resulting in anti-diabetic efficacy, i.e. reduction in plasma glucose levels. Male C57BL/6 mice (8-10 weeks of age) are fed normal rodent chow diet and water ad libitum. On the night before the study, animals are fasted overnight in clean cages. On the morning of the study, animals are dosed orally with vehicle or compound at the indicated doses 30 minutes prior to the glucose challenge (2 g/kg) by intraperitoneal injection. Blood glucose levels are determined from tail bleeds taken immediately prior to compound dosing (−30 min) and 0, 15, 30, and 60 min after glucose challenge using handheld glucometers. Plasma is isolated from tail bleeds taken at 7 minutes after glucose challenge and used to determine insulin levels by the Rat/Mouse Insulin Elisa kit (Millipore) or MA6000 Mouse/Rat Insulin Kit (MSD). The blood glucose profile from t=0 to t=60 min is used to calculate an area under the curve (AUC) for each treatment. Percent lowering in glucose AUC is calculated for each treatment group with respect to the AUC of vehicle group. Compounds with a reduction in glucose AUC (P<0.05) is considered positive in the assay.
smiles,measurement,setting,value
"Cc1ncn(C)c1NC(=O)[C@@H]1CCC[C@H](N(C)C(=O)c2cccc(C(F)(F)F)c2)C1 (single isomer, unassigned; isomer 1) [Example 1, Cis-(chiral)-N-[3-[(3,5-Dimethylimidazol-4-yl)carbamoyl]cyclohexyl]-N-methyl-3-(trifluoromethyl)benzamide, isomer 1]",efficacy against human GPR142 receptor,human GPR142,105%
same,EC50,human GPR142; read-out: EC50 against human GPR142 receptor,52.6 nM
same,EC50,mouse GPR142,5.46 nM
same,ED50 in IPGTT,GPR142,4.2 mpk
